Legend:
[1] = system: Gram-negative bacteria (genus Proteus); assay: Antibiotic sensitivity trial (inhibition halos on agar Müller-Hinton plate), Gram-negative isolate; type: cell-based; design: key to Plate 1 Sensitivity Level: Sensitive(S); Intermediate or Moderately sensitive (I); Resistant (R); details: Plate 1 = FIG. 2 left (Gram-negative bacteria); for Plate 1 (Gram-) (mm) inhibition halo: 18-24 hours at 37° C., average for three experiments; for Plate 1 Sensitivity Level: classified according to halo size
Method: (§1) In order to assert the antimicrobial capability of the collagen matrix or membrane, lab testing was carried out. Patient biopsies were collected from different types of infected wounds (neuropathic diabetic foot and biofilms). These samples were homogenized and set to culture for 24 hours to observe if there was bacterial growth or not. When bacterial growth is observed, colonies of these cultures were isolated, and with them, a test for microbial sensitivity to the action of nanometals was carried out. […] In order for this trial to be performed, antibiotics commonly used for eliminating these bacteria and at set concentrations were used as controls. […] In order to analyze the effectiveness of copper nanometals and its effectiveness as antimicrobial agents, three concentrations, 1, 5 and 10 mg/ml, were used. […] The trial was carried out as follows: On the surface of an agar Müller-Hinton plate, 100 μl of a bacterial solution (OD600: 0.4) were inoculated and seeded evenly for bacterial colonies to grow. Then, filter paper discs soaked with known concentrations of the different antibiotics are placed. The antibiotic will spread from the agar filter paper radially. The plate was incubated for 18-24 hours at 37° C., and then the growth inhibition halos are measured by interpreting them according to the available data in databases. The results are expressed as: Sensitive(S), Intermediate or Moderately sensitive (I) and Resistant (R). […] To determine the inhibition halo, the diameter surrounding the sense disc on which bacterial growth was not observed was measured on the plate seeded with bacteria in the presence of different antibiotics. In this case, the inhibition halo is expressed in mm. According to the halo size, the bacteria are classified as sensitive to the antibiotic action, resistant to the antibiotic action or of intermediate resistance to the antibiotic action (data that is published in databases). […] Additionally, the purpose of this trial is to rule out that the matrix alone presents some level of antimicrobial action, therefore, a copper-free matrix was used as control. […] Gram-negative bacteria belong to genus Proteus, and Gram-positive bacteria belong to genus Staphylococcus.

[2] = system: Gram-positive bacteria (genus Staphylococcus); assay: Antibiotic sensitivity trial (inhibition halos on agar Müller-Hinton plate), Gram-positive isolate; type: cell-based; design: key to Plate 2 Sensitivity Level: Sensitive(S); Intermediate or Moderately sensitive (I); Resistant (R); details: Plate 2 = FIG. 2 right (Gram-positive bacteria); for Plate 2 (Gram+) (mm) inhibition halo: 18-24 hours at 37° C., average for three experiments; for Plate 2 Sensitivity Level: classified according to halo size
Method: as §1

SMILES | Plate 1 (Gram-) (mm) inhibition halo [1] [mm] | Plate 2 (Gram+) (mm) inhibition halo [2] [mm] | Plate 1 Sensitivity Level [1] | Plate 2 Sensitivity Level [2]
O=C(O)c1cn(C2CC2)c2cc(N3CCNCC3)c(F)cc2c1=O [CIP, Ciprofloxacin] | 28 | 19 |  | 
CC[C@H]1OC(=O)[C@H](C)[C@@H](O[C@H]2C[C@@](C)(OC)[C@@H](O)[C@H](C)O2)[C@H](C)[C@@H](O[C@@H]2O[C@H](C)C[C@H](N(C)C)[C@H]2O)[C@](C)(OC)C[C@@H](C)C(=O)[C@H](C)[C@@H](O)[C@]1(C)O [CLR, Clarithromycin] | 15 | 18 | Intermediate | Sensitive
CC1(C)S[C@@H]2[C@H](NC(=O)[C@H](N)c3ccccc3)C(=O)N2[C@H]1C(=O)O [AM, Ampicillin] | 0 | 12 | Resistant | Intermediate

— patent US20250222038A1, “COLLAGEN MATRIX OR MEMBRANE WITH ANTIMICROBIAL PROPERTIES” (BIOCELLIX SPA, priority 2017, published 2025)
